Read-outs that look alike come from different tables or passages of the source.
Columns and labels:
[1] = system: HbF protein; assay: HbF protein by flow cytometry in BM cells (CS1, CS2); format: cell-based, human; conditions: for HbF positive cells / MFI of HbF positive cells: 1 μM ACY-957 or 30 μM hydroxyurea
Description: CD34+ cells isolated from human bone marrow of healthy normal donors (Lonza, AllCells, or StemCell Technologies), referred to as BM cells throughout this work, were cultured using two distinct 2-phase culture systems. These systems have been described previously and are referred to as Culture System 1 (CS1) and Culture System 2 (CS2) throughout this work. CS1 expansion media is StemSpan SFEM (StemCell Technologies) supplemented with CC100 (StemCell Technologies), 100 U/mL penicillin and 100 μg/mL streptomycin. CC100 is a mix of Flt-3 ligand (FLT3LG), KIT ligand (KITLG), interleukin-3 (IL3), and interleukin-6 (IL6). CS1 differentiation media is StemSpan SFEM supplemented with 1 U/ml erythropoietin (EPO), 5 ng/mL IL3, 20 ng/mL KITLG, 2 μM dexamethasone, 1 μM beta-estradiol, 100 U/mL penicillin and 100 μg/mL streptomycin. CS2 expansion media is StemSpan SFEM supplemented with 1% glutamine, 40 μg/mL lipids (Sigma), 100 ng/mL KITLG, 10 ng/mL IL3, and 0.5 U/mL EPO. CS2 differentiation media is same as CS2 expansion media, except 3 U/mL EPO.
Flow cytometry was performed on a FC500 flow cytometer ([…]). Fetal hemoglobin protein was assayed using the Fetal Hemoglobin Test Kit (Life Technologies) according to manufacturer’s protocol. Samples were stained with FITC-conjugated mouse IgG1 anti-human HbF antibody (clone HbF-1, Life Technologies). Each sample was also stained with a FITC-conjugated mouse IgG1 isotype control antibody (clone X40, BD Biosciences) and used as a negative control. FETALtrol cells were used as positive controls (Trillium Diagnostics). TFRC and GYPA were detected on fresh cells by staining with 20 μL of PE-conjugated anti-human TFRC (clone M-A712, catalog 555537, BD Biosciences) and 0.5 μL of FITC- or APC-conjugated anti-human GYPA (clone GA-R2 (HIR2), catalog 559943 or 551336, BD Biosciences) in 200 μL PBS with 0.1% BSA for 40 min on ice. Forward and side scatter, or staining with 7AAD (catalog 559925, BD Biosciences), was used to identify viable cells.
To determine if the HBG mRNA induction observed in the presence of ACY-957 was associated with an increase in the HbF protein, CS1 and CS2 cells at day 5 were stained with a fluorescently conjugated anti-HbF antibody and evaluated by flow cytometry. HbF positive cells were increased by 2 to 3-fold upon treatment with ACY-957, which exceeded the response observed with hydroxyurea (Fig 2B and 2E).

[2] = system: GATA2 binding; assay: GATA2 ChIP-Seq in erythroid progenitors; format: cell-based, human; conditions: 1 μM
Description: Cells were fixed in 1% formaldehyde for 15 minutes at room temperature. Crosslinking reaction was extinguished by adding glycine to 125 mM. Cells were washed three times in PBS, 0.5% lgepal CA-630, 1 mM phenylmethanesulfonyl fluoride (PMSF). Cell pellets were snap frozen on dry ice and stored at -80°C.
ChIP-Seq was performed by Active Motif (Carlsbad, CA). Chromatin (30 μg) from vehicle (n = 1) or ACY-957 (n = 1) treated cells was immunoprecipitated (n = 1, each) with antibodies against GATA2 (20 μL, sc-9008, Santa Cruz Biotechnology), HDAC1 (20 μg, ab7028, Abcam), or HDAC2 (4 μg, ab12169, Abcam). ChIP DNA, as well as a control sample composed of equal amounts of input DNA from each treatment group, was processed into Illumina libraries using standard procedures, and libraries were sequenced on HiSeq 2000. The 50-nt sequence reads were mapped to the human genome, build Hg19, using the BWA algorithm with default settings. For the analysis, all data files were normalized to the same number of unique alignments without duplicate reads (24 million). Sequence tags were extended in silico (using Active Motif software) at their 3′-ends to a length of 150 bp. To identify the density of fragments (extended tags) along the genome, the genome was divided into 32-nt bins and the number of fragments in each bin was determined. The resulting histogram files (bigwig format) are presented in figures using the Santa Cruz Genome Browser. Visualizations were exported as an eps file and formatted using Adobe Illustrator. Regions of GATA2 enrichment (intervals) were determined using MACS peak calling software, which identifies enrichments in the ACY-957 or vehicle treated ChIP data file when compared to the input DNA data file (random background). To compare peak metrics between vehicle and ACY-957 treated samples, overlapping intervals are grouped into active regions, which are defined by the start coordinate of the most upstream interval and the end coordinate of the most downstream interval. In locations where only one sample has an interval, this interval defines the active region. […]

[3] = parameters: method as in earlier work; conditions: dog; cited from earlier work
[4] = parameters: method as in earlier work; conditions: monkey; cited from earlier work

GATA2 binding at the other 5 regions of the β-like globin gene cluster ([2]; ChIP-Seq): not affected
SMILES: Nc1ccc(-c2cccs2)cc1NC(=O)c1ccc2nc(N3CCNCC3)ccc2c1 [ACY-957]
HbF positive cells ([1]; CS1, day 5): 36% | MFI of HbF positive cells ([1]; CS1, day 5): 36 | increase of HbF positive cells ([1]; CS1 and CS2, day 5, 1 μM): 2 to 3 fold | increase of mean fluorescent intensity (MFI) of HbF positive cells ([1]; CS1 and CS2, day 5, 1 μM): up to 2 fold | HbF positive cells ([1]; CS2, day 5): 50% | MFI of HbF positive cells ([1]; CS2, day 5): 20 | maximum increase in GATA2 binding peak height ([2]; -1.8 kb GATA2 regulatory region): 3 fold | increase in GATA2 binding at the HBD promoter region ([2]; ChIP-Seq): 1.8 fold | pharmacokinetic properties [3]: favorable | pharmacokinetic properties [4]: favorable

Source: publication PMC4830539, “Chemical Inhibition of Histone Deacetylases 1 and 2 Induces Fetal Hemoglobin through Activation of GATA2” (PLoS ONE, 2016)
